Structures can show the parent of a compound that is named as a salt.

In assay [1] the target is T1, sRAGE binding to β-amyloid (Homo sapiens, UniProt Q15109).
T1 construct: extracellular domain can be isolated by proteolysis of RAGE to generate soluble RAGE (sRAGE) comprised of the V and C domains
The assay can be described thus: RAGE binding assay (ELISA), β-amyloid as the RAGE ligand. The following applies: compounds tested in hydrochloride salt form, concentration at which 50% signal has been inhibited. The protocol:
(§1) The following assay method may be used to identify compounds of Formula (I) or pharmaceutically acceptable salts thereof which are useful as inhibitors of binding of physiological RAGE ligands, such as S100b and β-amyloid, to RAGE.
(§2) S100b, β-amyloid, or CML (500 ng/100 μL/well) in 100 mM sodium bicarbonate/sodium carbonate buffer (pH 9.8) is loaded onto the wells of a NUNC Maxisorp flat bottom 96-well microtitre plate. The plate is incubated at 4° C. overnight. The wells are aspirated and treated with 50 mM imidazole buffer saline (pH 7.2) (with 5 mM CaCl2/MgCl2) containing 1% bovine serum albumin (BSA) (300 μL/well) for 1 h at RT. The wells are aspirated.
(§3) Test compounds are dissolved in nanopure water (concentration: 10-100 μM). DMSO may be used as co-solvent. 25 μL of test compound solution in 4% DMSO is added, along with 75 μL sRAGE (6 nM FAC) to each well and samples are incubated for 1 h at 37° C. The wells are washed several times with 155 mM NaCl pH 7.2 buffer saline and are soaked for several seconds between each wash.
(§4) Non-radioactive detection is performed by adding:
(§5) 10 μL Biotinylated goat F(ab′)2 Anti-mouse IgG. (8.0×10-4 mg/mL, FAC), 5 μL Alk-phos-Streptavidin (3×10-3 mg/mL FAC), 0.42 μL per 5 mL Monoclonal antibody for sRAGE (FAC 6.0×10-3 mg/mL) to 5 mL 50 mM imidazole buffer saline (pH 7.2) containing 0.2% bovine serum albumin and 5 mM CaCl2. The mixture is incubated for 30 minutes at RT.
(§6) 100 μL of complex is added to each well and incubation is allowed to proceed at rt for 1 h. Wells are washed several times with wash buffer and soaked several seconds between each wash. 100 μL 1 mg/mL (pNPP) in 1 M diethanolamine (pH adjusted to 9.8 with HCl) is added. Color is allowed to develop in the dark for 30 min to 1 h at rt. The reaction is quenched with 10 μL of stop solution (0.5-1.0 N NaOH in 50% ethanol) and the absorbance is measured spectrophotometrically with a microplate reader at 405 nm.
(§7) The IC50 (μM) value in the ELISA assay represents the concentration of compound at which 50% signal has been inhibited.

Assay [2] addresses T2, sRAGE binding to S100b (Homo sapiens, UniProt Q15109).
T2 construct: extracellular domain can be isolated by proteolysis of RAGE to generate soluble RAGE (sRAGE) comprised of the V and C domains
As to the kind of experiment: RAGE binding assay (ELISA), S100b as the RAGE ligand. Conditions: compounds tested in hydrochloride salt form, concentration at which 50% signal has been inhibited. The protocol: as §1, §2, §3, §4, §5, §6, §7
Background: ELISA stands for enzyme-linked immunosorbent assay.

T2 sequence (Q15109 23-342 limits assumed): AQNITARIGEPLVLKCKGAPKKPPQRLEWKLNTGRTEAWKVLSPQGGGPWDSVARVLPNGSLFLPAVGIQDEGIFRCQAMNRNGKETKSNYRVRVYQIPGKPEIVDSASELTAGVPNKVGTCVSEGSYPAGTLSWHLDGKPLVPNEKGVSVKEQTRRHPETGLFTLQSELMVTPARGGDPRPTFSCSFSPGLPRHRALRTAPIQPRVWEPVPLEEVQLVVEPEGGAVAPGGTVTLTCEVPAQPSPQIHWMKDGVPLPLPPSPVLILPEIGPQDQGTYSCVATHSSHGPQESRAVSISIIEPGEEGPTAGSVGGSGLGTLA
T1 sequence (Q15109 23-342 limits assumed): as above

For `CN1CCC(Oc2cc(-c3ccc(OCc4ccccc4)cc3)c(C(F)(F)F)nn2)CC1` [Example 13, 4-(4-Benzyloxy-phenyl)-6-(1-methyl-piperidin-4-yloxy)-3-trifluoromethyl-pyridazine dihydrochloride], the values for the IC50 in assay [1] and in assay [2] were 2620 nM and 2570 nM, respectively.

For the compound `CCCCc1nnc(OC2CCN(CCC3OCCCO3)CC2)cc1-c1ccc(OC2CCCCC2)cc1` [Example 18, 3-Butyl-4-(4-cyclohexyloxy-phenyl)-6-[1-(2-[1,3]dioxan-2-yl-ethyl)-piperidin-4-yloxy]-pyridazine dihydrochloride], the half-maximal inhibitory concentration (IC50) – broadly, the concentration at which inhibition is half-maximal – in assay [1] amounted to 600 nM; in assay [2], 830 nM.

On to `CCCCc1nnc(OC2CCN(C)CC2)cc1-c1ccc(OC2CCCCC2)c(C(C)=O)c1` [Example 66, 1-{5-[3-Butyl-6-(1-methyl-piperidin-4-yloxy)-pyridazin-4-yl]-2-cyclohexyloxy-phenyl}-ethanone], for which the IC50 in assay [1] is 1830 nM; in assay [2], 1470 nM.

For `CCCCc1nnc(OC2CCN(C)CC2)cc1-c1ccc(OC2CCC(F)(F)CC2)cc1` [Example 19, 3-Butyl-4-[4-(4,4-difluoro-cyclohexyloxy)-phenyl]-6-(1-methyl-piperidin-4-yloxy)-pyridazine dihydrochloride], the IC50 was determined as 870 nM in assay [1] and 640 nM in assay [2].

For the compound `CCCCc1nnc(OC2CCN(C)CC2)cc1-c1ccc(OC2CCCCC2)c(N2CCCC2=O)c1` [Example 68, 1-{5-[3-Butyl-6-(1-methyl-piperidin-4-yloxy)-pyridazin-4-yl]-2-cyclohexyloxy-phenyl}-pyrrolidin-2-one dihydrochloride], the 50% inhibitory concentration (IC50) in assay [1] is 2490 nM; in assay [2], 2040 nM.

For `CCCCc1nnc(OC[C@H]2CCN(C)C[C@H]2OC)cc1-c1ccc(OC2CCCCC2)cc1` (racemic) [Example 35, (±)-cis-3-Butyl-4-(4-cyclohexyloxy-phenyl)-6-(3-methoxy-1-methyl-piperidin-4-ylmethoxy)-pyridazine dihydrochloride], the IC50 in assay [1] and in assay [2] was 740 nM throughout.

With `CCCCc1nnc(C(=O)NC2CCN(C)CC2)cc1-c1ccc(OCc2ccccc2)cc1` [Example 80, 5-(4-Benzyloxy-phenyl)-6-butyl-pyridazine-3-carboxylic acid (1-methyl-piperidin-4-yl)-amide dihydrochloride], the IC50 in assay [1] and in assay [2] was 1250 nM in each case.

Turning to `CCCCc1nnc(C(=O)NC[C@H](O)CN(C)C)cc1-c1ccc(OC2CCCCC2)cc1` [Example 87, 6-Butyl-5-(4-cyclohexyloxy-phenyl)-pyridazine-3-carboxylic acid ((S)-3-dimethylamino-2-hydroxy-propyl)-amide dihydrochloride], the IC50 in assay [1] was 2430 nM; in assay [2] it was 1970 nM.

For the compound `CCCCc1nnc(C(=O)NCC2CN(C)CCC2OC)cc1-c1ccc(OC2CCCCC2)cc1` (stereo not drawn) [Example 101, 6-Butyl-5-(4-cyclohexyloxy-phenyl)-pyridazine-3-carboxylic acid (4-methoxy-1-methyl-piperidin-3-ylmethyl)-amide dihydrochloride], the IC50 in assay [1] amounted to 940 nM; in assay [2], 660 nM.

`CCCCc1nnc(OCC2(O)CCN(C)CC2)cc1-c1ccc(OCc2ccccc2)cc1` [Example 11, 4-[5-(4-Benzyloxy-phenyl)-6-butyl-pyridazin-3-yloxymethyl]-1-methyl-piperidin-4-ol dihydrochloride]: the results for the IC50 in assay [1] and in assay [2] were 3230 nM and 5740 nM, respectively.

`CCCCc1nnc(O[C@H]2CC3C[C@@H](O)C(C2)N3C)cc1-c1ccc(OC2CCCCC2)cc1` (stereo partly drawn) [Example 31, (3S,6R)-3-[6-Butyl-5-(4-cyclohexyloxy-phenyl)-pyridazin-3-yloxy]-8-methyl-8-aza-bicyclo[3.2.1]octan-6-ol dihydrochloride]: the IC50 in assay [1] is 1180 nM; in assay [2], 890 nM.

`CCCCc1nnc(OC2CCN(C)CC2)cc1-c1ccc(OC2CCCCC2)c(N(CC(C)C)S(C)(=O)=O)c1` [Example 64, N-{5-[3-butyl-6-(1-methyl-piperidin-4-yloxy)-pyridazin-4-yl]-2-cyclohexyloxy-phenyl}-N-isobutyl-methanesulfonamide dihydrochloride]: the IC50 in assay [1] was 840 nM; in assay [2] it was 880 nM.

As to `CCCCc1nnc(OC2CCN(C)CC2)cc1-c1ccc(OCc2ccccc2)cc1` [Example 1, 4-(4-enzyloxy-phenyl)-3-butyl-6-(1-methyl-piperidin-4-yloxy)-pyridazine dihydrochloride], the figures for the IC50 in assay [1] and in assay [2] were 1090 nM and 950 nM, respectively.

For `CCCCc1nnc(C(=O)NC2(CO)CCN(C)C2)cc1-c1ccc(OC2CCCCC2)cc1` (stereo not drawn) [Example 111, 6-Butyl-5-(4-cyclohexyloxy-phenyl)-pyridazine-3-carboxylic acid (3-hydroxymethyl-1-methyl-pyrrolidin-3-yl)-amide dihydrochloride], the figures for the IC50 in assay [1] and in assay [2] were 2920 nM and 2120 nM, respectively.

Turning to `CCCCc1nnc(OC2CCN(C)CC2)cc1-c1ccc(OCc2cccnn2)cc1` [Example 53, 3-butyl-6-(1-methyl-piperidin-4-yloxy)-4-[4-(pyridazin-3-ylmethoxy)-phenyl]-pyridazine trihydrochloride], the IC50 in assay [1] was determined as 2020 nM; in assay [2], 2510 nM.

As to `CCCCc1nnc(O[C@H]2C[C@H]3CC[C@@H](C2)N3C)cc1-c1ccc(OC2CCCCC2)cc1` [Example 27, endo-3-[6-Butyl-5-(4-cyclohexyloxy-phenyl)-pyridazin-3-yloxy]-8-methyl-8-aza-bicyclo[3.2.1]octane dihydrochloride], the IC50 in assay [1] was found to be 2520 nM; in assay [2] it was 2690 nM.

In the case of `CCCCc1nnc(C(=O)NCC2(OC)CCN(C)CC2)cc1-c1ccc(OC2CCCCC2)cc1` [Example 89, 6-Butyl-5-(4-cyclohexyloxy-phenyl)-pyridazine-3-carboxylic acid (4-methoxy-1-methyl-piperidin-4-ylmethyl)-amide dihydrochloride], the IC50 in assay [1] was 2010 nM; in assay [2] it was 2730 nM.

With `CCCCc1nnc(C(=O)NC[C@H]2CCN(C)C[C@H]2F)cc1-c1ccc(OC2CCCCC2)cc1` (racemic) [Example 110, (±)-cis-6-Butyl-5-(4-cyclohexyloxy-phenyl)-pyridazine-3-carboxylic acid (3-fluoro-1-methyl-piperidin-4-ylmethyl)-amide dihydrochloride], the figures for the IC50 in assay [1] and in assay [2] were 1340 nM and 1040 nM, respectively.

For `CCCCc1nnc(OC[C@H]2CN(C)CC[C@H]2O)cc1-c1ccc(OC2CCCCC2)cc1` (racemic) [Example 43, (±)-cis-3-[6-Butyl-5-(4-cyclohexyloxy-phenyl)-pyridazin-3-yloxymethyl]-1-methyl-piperidin-4-ol dihydrochloride], the concentration for half-maximal inhibition (IC50) came out at 830 nM in assay [1] and 2070 nM in assay [2].

In the case of `CCCCc1nnc(O[C@H]2CCN(C)C[C@H]2F)cc1-c1ccc(OC2CCCCC2)cc1` (racemic) [Example 42, (±)-cis-3-Butyl-4-(4-cyclohexyloxy-phenyl)-6-(3-fluoro-1-methylpiperidin-4-yloxy)-pyridazine dihydrochloride], the figures for the half-maximal inhibitory concentration (IC50) in assay [1] and in assay [2] were 1800 nM and 2210 nM, respectively.

Take `CCCCc1nnc(OC2CCN(C)CC2)cc1-c1ccc(OC2CCCCC2)c(C2=NC(C)(C)CO2)c1` [Example 76, 3-Butyl-4-[4-cyclohexyloxy-3-(4,4-dimethyl-4,5-dihydro-oxazol-2-yl)-phenyl]-6-(1-methyl-piperidin-4-yloxy)-pyridazine]: the half-inhibitory concentration (IC50) in assay [1] amounted to 6780 nM; in assay [2], 2070 nM.

As to `CCCCc1c(-c2ccc(OC3CCCCC3)cc2)cc(OC2CCN(C)CC2)n[n+]1[O-]` [Example 40, 3-Butyl-4-(4-cyclohexyloxy-phenyl)-6-(1-methyl-piperidin-4-yloxy)-pyridazine 2-oxide hydrochloride], the IC50 was found to be 2180 nM in assay [1] and 2980 nM in assay [2].

As for `CCCCc1nnc(OC2CCN(CC(C)(C)O)CC2)cc1-c1ccc(OC2CCCCC2)cc1` [Example 22, 1-{4-[6-Butyl-5-(4-cyclohexyloxy-phenyl)-pyridazin-3-yloxy]-piperidin-1-yl}-2-methyl-propan-2-ol dihydrochloride], the half-maximal inhibitory concentration (IC50) stood at 1120 nM in assay [1] and 1380 nM in assay [2].

`CCCCc1nnc(OCC2CN(C)C2)cc1-c1ccc(OCc2ccccc2)cc1` [Example 9, 4-(4-Benzyloxy-phenyl)-3-butyl-6-(1-methyl-azetidin-3-ylmethoxy)-pyridazine dihydrochloride]: the IC50 in assay [1] was determined as 3140 nM; in assay [2] it was 2700 nM.

These data come from patent publication US9045461B2, “Phenyl-heteroaryl derivatives and methods of use thereof” (TransTech Pharma, LLC, priority 2010, dated 2015).
